Laboratory results: patent US9562031B1, “Phenethyldihydrobenzodioxolones and methods of use” (Sequoia Sciences, Inc., priority 2015, dated 2017)
Like-named read-outs stand apart in the source and are kept apart here.

Experiments:
OVCAR-4 cells = experiment: antiproliferation assay, OVCAR-4; assay type: cell-based; settings: Homo sapiens
Description: (§1) For the antiproliferation assay, NCI-H460 (large cell lung carcinoma) or M14 (amelanotic melanoma) cells were grown in RPMI-1640 with 10% FBS supplemented with L-glutamine and HEPES. Cells were seeded into 96-well plates at 5×10^2 to 5×10^4 cells/well and allowed to adhere overnight; the medium was then removed. A stock solution of test compound in DMSO was diluted in medium to generate a series of working solutions. Aliquots (100 μl) of the working solutions were then added to the appropriate test wells to expose cells to the final concentrations of compound in a total volume of 100 μl. Seven different concentrations were tested, with 2-5 wells per concentration. Camptothecin was used as a positive control; wells containing vehicle without compound were used as negative controls. Plates were kept for 72 h in a 37° C., 5% CO2 incubator. After incubation, viable cells were detected with the CELLTITER 96 AQueous Non-Radioactive Cell Proliferation Assay (Promega), and IC50 values were determined using GraphPad Prism 5 software.
(§2) Antiproliferation of several of the active compounds was tested against additional cell lines.

K-562 cells [1] = experiment: antiproliferation assay, K-562; assay type: cell-based; settings: Homo sapiens, K562
Description: as §1, §2

EKVX cells = experiment: antiproliferation assay, paclitaxel-resistant EKVX; assay type: cell-based; settings: Homo sapiens
Description: as §1
(§3) Compound 4 was tested for antiproliferation activity against several paclitaxel-resistant human cancer cell lines.

TK-10 cells [2] = experiment: antiproliferation assay, paclitaxel-resistant TK-10; assay type: cell-based; settings: Homo sapiens
Description: as §1, §3

[3] = system: M14 (amelanotic melanoma) cells; experiment: antiproliferation assay (72 h, CELLTITER 96), M14; assay type: cell-based, human; settings: Homo sapiens
How it was run: (§4)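 Human M14 melanoma and NCI-H460 lung carcinoma cells in RPMI-1640/10% FBS, seeded at 5×10^2–5×10^4 cells/well and adhered overnight, then exposed to seven compound concentrations for 72 h at 37 °C. Viable cells read by CellTiter 96 AQueous (MTS); IC50 = concentration giving 50% of maximal growth inhibition.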

[4] = system: NCI-H460 (large cell lung carcinoma) cells; experiment: antiproliferation assay (72 h, CELLTITER 96), NCI-H460; assay type: cell-based, human; settings: Homo sapiens
How it was run: as §4

MALME-3M cells = experiment: NCI-60 panel antiproliferation, MALME-3M; assay type: cell-based, human; settings: Homo sapiens, NCI 60-cell panel
Description: (§5) Bifidenone and Compound 37 were tested for antiproliferation activity against the NCI-60 panel of cancer cell lines. COMPARE analysis was then conducted to compare the activity “fingerprint” of bifidenone to those of known classes of compounds (Zhou, B.-N., Hoch, J. M., Johnson, R. K., Mattern, M. R., Eng, W.-K., Ma, J., Hecht, S. M., Newman, D. J., Kingston, D. G. I., 2000. Use of COMPARE Analysis to Discover New Natural Product Drugs: Isolation of Camptothecin and 9-Methoxycamptothecin from a New Source. Journal of Natural Products 63, 1273-1276.).

HCT-116 cells = experiment: NCI-60 panel antiproliferation, HCT-116; assay type: cell-based, human; settings: Homo sapiens, NCI 60-cell panel
Description: as §5

ACHN cells = experiment: NCI-60 panel antiproliferation, ACHN; assay type: cell-based, human; settings: Homo sapiens, NCI 60-cell panel
Description: as §5

NCI-H522 cells = experiment: NCI-60 panel antiproliferation, NCI-H522; assay type: cell-based, human; settings: Homo sapiens, NCI 60-cell panel
Description: as §5

HT29 cells = experiment: NCI-60 panel antiproliferation, HT29; assay type: cell-based, human; settings: Homo sapiens, HT-29, NCI 60-cell panel
Description: as §5

U251 cells = experiment: NCI-60 panel antiproliferation, U251; assay type: cell-based, human; settings: Homo sapiens, U-251, NCI 60-cell panel
Description: as §5

SF-295 cells = experiment: NCI-60 panel antiproliferation, SF-295; assay type: cell-based, human; settings: Homo sapiens, NCI 60-cell panel
Description: as §5

LOX IMVI cells = experiment: NCI-60 panel antiproliferation, LOX IMVI; assay type: cell-based, human; settings: Homo sapiens, NCI 60-cell panel
Description: as §5

BT-549 cells = experiment: NCI-60 panel antiproliferation, BT-549; assay type: cell-based, human; settings: Homo sapiens, NCI 60-cell panel
Description: as §5

SNB-75 cells = experiment: NCI-60 panel antiproliferation, SNB-75; assay type: cell-based, human; settings: Homo sapiens, NCI 60-cell panel
Description: as §5

PC-3 cells = experiment: NCI-60 panel antiproliferation, PC-3; assay type: cell-based, human; settings: Homo sapiens, NCI 60-cell panel
Description: as §5

RPMI-8226 cells = experiment: NCI-60 panel antiproliferation, RPMI-8226; assay type: cell-based, human; settings: Homo sapiens, NCI 60-cell panel
Description: as §5

SR cells = experiment: NCI-60 panel antiproliferation, SR; assay type: cell-based, human; settings: Homo sapiens, NCI 60-cell panel
Description: as §5

K-562 cells [5] = experiment: NCI-60 panel antiproliferation, K-562; assay type: cell-based, human; settings: Homo sapiens, K562, NCI 60-cell panel
Description: as §5

UO-31 cells = experiment: NCI-60 panel antiproliferation, UO-31; assay type: cell-based, human; settings: Homo sapiens, NCI 60-cell panel
Description: as §5

HCC-2998 cells = experiment: NCI-60 panel antiproliferation, HCC-2998; assay type: cell-based, human; settings: Homo sapiens, NCI 60-cell panel
Description: as §5

MDA-MB-468 cells = experiment: NCI-60 panel antiproliferation, MDA-MB-468; assay type: cell-based, human; settings: Homo sapiens, NCI 60-cell panel
Description: as §5

HCT-15 cells = experiment: NCI-60 panel antiproliferation, HCT-15; assay type: cell-based, human; settings: Homo sapiens, NCI 60-cell panel
Description: as §5

NCI-ADR/RES cells = experiment: NCI-60 panel antiproliferation, NCI-ADR/RES; assay type: cell-based, human; settings: Homo sapiens, NCI 60-cell panel
Description: as §5

TK-10 cells [6] = experiment: NCI-60 panel antiproliferation, TK-10; assay type: cell-based, human; settings: Homo sapiens, NCI 60-cell panel
Description: as §5

SW-620 cells = experiment: NCI-60 panel antiproliferation, SW-620; assay type: cell-based, human; settings: Homo sapiens, NCI 60-cell panel
Description: as §5

NCI-H460 cells = experiment: NCI-60 panel antiproliferation, NCI-H460; assay type: cell-based, human; settings: Homo sapiens, NCI 60-cell panel
Description: as §5

SK-MEL-28 cells = experiment: NCI-60 panel antiproliferation, SK-MEL-28; assay type: cell-based, human; settings: Homo sapiens, NCI 60-cell panel
Description: as §5

Q: With `C=CC[C@H]1C[C@]2([C@H](C)Cc3cc(O)c(OC)cc3F)OCOC2=CC1=O` (relative stereo) [Compound 4, 6-allyl-7a-(1-(2-fluoro-5-hydroxy-4-methoxyphenyl)propan-2-yl)-7,7a-dihydrobenzo[d][1,3]dioxol-5(6H)-one] as the compound, how does the IC50 (OVCAR-4 cells) read?
A: The IC50 was 6.4 nM.

Q: And the IC50 (K-562 cells [1])?
A: The IC50 was 13 nM.

Q: And the IC50 (EKVX cells)?
A: Its IC50 is 7 nM.

Q: And the IC50 (TK-10 cells [2])?
A: Its IC50 is 7 nM.

Q: What about the IC50 ([3]; Table 3) of the same compound?
A: Its IC50 is 11 nM.

Q: And the IC50 ([4]; NCI-H460, Table 3, read-out: NCI-H460 IC50)?
A: The IC50 was 15 nM.

Q: What about the IC50 ([4]; NCI-H460, as quoted in the pharmacokinetics text, read-out: IC50 against NCI-H460 human lung cancer cells) of the same compound?
A: Its IC50 is 15 nM.

Q: With `C=CC[C@H]1C[C@]2([C@@H](C)Cc3ccc(OC)c(F)c3)OCOC2=CC1=O` [Compound 37, (6S,7aR)-6-allyl-7a-((S)-1-(3-fluoro-4-methoxyphenyl)propan-2-yl)-7,7a-dihydrobenzo[d][1,3]dioxol-5(6H)-one] as the compound, how does the IC50 (MALME-3M cells) read?
A: Its IC50 is 39 nM.

Q: And the IC50 (HCT-116 cells)?
A: Its IC50 is 115 nM.

Q: What about the IC50 (ACHN cells) of the same compound?
A: The IC50 was 32 nM.

Q: What about the IC50 (NCI-H522 cells) of the same compound?
A: Its IC50 is 61 nM.

Q: And the IC50 (HT29 cells)?
A: Its IC50 is 88 nM.

Q: And the IC50 (U251 cells)?
A: The IC50 was 123 nM.

Q: What about the IC50 (SF-295 cells) of the same compound?
A: Its IC50 is 48 nM.

Q: What about the IC50 (LOX IMVI cells) of the same compound?
A: The IC50 was 27 nM.

Q: And the IC50 (BT-549 cells)?
A: Its IC50 is 63 nM.

Q: And the IC50 (SNB-75 cells)?
A: Its IC50 is 49 nM.

Q: And the IC50 (PC-3 cells)?
A: The IC50 was 70 nM.

Q: What about the IC50 (RPMI-8226 cells) of the same compound?
A: The IC50 was 74 nM.

Q: And the IC50 (SR cells)?
A: The IC50 was 14 nM.

Q: And the IC50 (K-562 cells [5])?
A: Its IC50 is 43 nM.

Q: And the IC50 (UO-31 cells)?
A: Its IC50 is 65 nM.

Q: What about the IC50 (HCC-2998 cells) of the same compound?
A: Its IC50 is 129 nM.

Q: What about the IC50 (MDA-MB-468 cells) of the same compound?
A: Its IC50 is 59 nM.

Q: And the IC50 (HCT-15 cells)?
A: Its IC50 is 56 nM.

Q: What about the IC50 (NCI-ADR/RES cells) of the same compound?
A: The IC50 was 47 nM.

Q: And the IC50 (TK-10 cells [6])?
A: Its IC50 is 107 nM.

Q: And the IC50 (SW-620 cells)?
A: The IC50 was 47 nM.

Q: What about the IC50 (NCI-H460 cells) of the same compound?
A: The IC50 was 49 nM.

Q: And the IC50 ([3]; Table 4)?
A: Its IC50 is 8 nM.

Q: What about the IC50 ([4]; NCI-H460, Table 4, read-out: NCI-H460 IC50) of the same compound?
A: The IC50 was 85 nM.

Q: And the IC50 (SK-MEL-28 cells)?
A: The IC50 was 37 nM.
